From PMC12015759, “A humanized Gs-coupled DREADD for circuit and behavior modulation” (Frontiers in Cellular Neuroscience, 2025) come the findings set out here.

For series [1], the system named is dopaminergic neurons in the SNc. In words: 6-OHDA lesion, TH staining of striatum and SNc. In kind it is in vivo, mouse. The conditions noted are these: bilateral injection into the striatum, 800 nL of 5 mg/mL per side, 1 week. The procedure:
A PD mouse model was generated using 6-OHDA. Desipramine (Sigma) was administrated (25 mg/kg) via intraperitoneal injection 30 min before a 6-OHDA injection. The stereotactic injection procedure was identical to the AAV injection described above. A volume of 800 nL 6-OHDA (5 mg/mL) was injected into each side of striatum (from bregma: AP 0.5 mm, ML ±1.5 mm, DV –3.2 mm) at a rate of 100 nL/min. One week after 6-OHDA lesions were generated, AAV injections were administered, and behavioral tests were conducted 3 weeks after AAV injections.
Animals were deeply anesthetized and perfused with saline and 4% paraformaldehyde perfusion through left ventricle. The mouse brains were extracted, fixed overnight, and then dehydrated with 30% sucrose solution. After being embedded in OCT (Sakura), brain sections were prepared at 40 μm thickness by a cryostat (Leica, CM1950).
Brain slices were blocked and permeabilized with PBS containing 5% bovine serum albumin (BSA) and 0.3% Triton X-100 for 30 min. The slices were then incubated with anti-GFP (Abcam, ab13970) or anti-TH (Abcam, ab76442), diluted to 1:500 in PBS containing 5% BSA at 4°C overnight. The sections were then incubated with diluted Alexa Fluor 488 goat anti-chicken IgG antibody (Thermo Fisher, A-11039) or Alexa Fluor 594 donkey anti-mouse IgG antibody (Thermo Fisher, A32744) at room temperature for 1 h. […]

The next series concerns the target T1, rM3Ds (Rattus norvegicus, UniProt P08483, A177S/A238G/A489L/DEL261-437/DEL441-478/E258S/I253V/I483M/INS256[…]/K178L/K182A/K255R/K484R/K486H/L173F/L482A/M480V/R171S/R176Q/R179M/S481M/T174R/T181R/T257A/Y148C).
T1 construct: host or cells: HEK293T
T1 sequence (P08483 with tags, fused parts or gaps Y148C/R171S/L173F/T174R/R176Q/A177S/K178L/R179M/T181R/K182A/A238G/I253V/K255R/INS256[…]/T257A/E258S/DEL261-437/DEL441-478/M480V/S481M/L482A/I483M/K484R/K486H/A489L): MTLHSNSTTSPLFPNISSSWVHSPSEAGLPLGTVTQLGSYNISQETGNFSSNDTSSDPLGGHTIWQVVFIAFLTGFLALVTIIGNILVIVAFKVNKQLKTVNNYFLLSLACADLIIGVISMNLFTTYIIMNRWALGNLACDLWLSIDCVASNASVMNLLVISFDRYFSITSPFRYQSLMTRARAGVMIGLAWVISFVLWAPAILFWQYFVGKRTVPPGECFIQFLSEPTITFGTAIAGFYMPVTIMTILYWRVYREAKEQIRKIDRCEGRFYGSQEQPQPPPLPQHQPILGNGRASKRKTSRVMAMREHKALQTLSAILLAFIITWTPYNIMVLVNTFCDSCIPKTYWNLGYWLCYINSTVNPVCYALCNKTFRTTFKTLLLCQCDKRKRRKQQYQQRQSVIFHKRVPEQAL
In words: cAMP assay (CRE-luciferase reporter) in HEK293T cells expressing rM3Ds. In kind it is cell-based. The settings on record: 100 μM of ACh, rM3Ds-transfected cells. For orientation: cAMP levels reflect the balance of adenylyl cyclase and phosphodiesterase activity.

As for `NCCc1cc(O)c(O)cc1O` [6-OHDA, 6-hydroxydopamine], in series [1], the “dopaminergic neurons in the SNc and dopaminergic innervation in the striatum” value is recorded as “almost complete loss”. `CC(=O)OCC[N+](C)(C)C` [ACh, acetylcholine chloride]: at rM3Ds, the luciferase activity entry is “modest elevation in luciferase activity”.
